Where “and” joins values, the source holds several entries; their conditions need not be identical. Identical values can stand only once. Like-named read-outs stand apart in the source and are kept apart here.
What was measured:
[1] = tested on: P. berghei exo-erythrocytic forms; experiment: P. berghei-Luc liver stage assay; assay type: cell-based; conditions: for Selectivity index (SI) = (mammalian cell IC50)/(Pb EEF IC50): HepG2 vs Pb EEF; for IC50: Plasmodium berghei, 48 h, read-out: Pb EEF IC50
[2] = tested on: 3D7 line of P. falciparum; experiment: P. falciparum asexual intraerythrocytic growth inhibition; assay type: cell-based; conditions: for Selectivity index (SI) = (mammalian cell IC50)/(P. falciparum IC50): HepG2 vs Pf3D7
HepG2 cells = experiment: HepG2 cytotoxicity bioluminescence assay; assay type: cell-based; conditions: Homo sapiens, HepG2, 48 h, read-out: IC50 (HepG2)
human HDAC6 (hHDAC6) = molecular target: T1, human HDAC6 (hHDAC6) (Homo sapiens, UniProt Q9UBN7); experiment: In vitro testing on hHDAC6
T1 sequence (Q9UBN7 1-1215): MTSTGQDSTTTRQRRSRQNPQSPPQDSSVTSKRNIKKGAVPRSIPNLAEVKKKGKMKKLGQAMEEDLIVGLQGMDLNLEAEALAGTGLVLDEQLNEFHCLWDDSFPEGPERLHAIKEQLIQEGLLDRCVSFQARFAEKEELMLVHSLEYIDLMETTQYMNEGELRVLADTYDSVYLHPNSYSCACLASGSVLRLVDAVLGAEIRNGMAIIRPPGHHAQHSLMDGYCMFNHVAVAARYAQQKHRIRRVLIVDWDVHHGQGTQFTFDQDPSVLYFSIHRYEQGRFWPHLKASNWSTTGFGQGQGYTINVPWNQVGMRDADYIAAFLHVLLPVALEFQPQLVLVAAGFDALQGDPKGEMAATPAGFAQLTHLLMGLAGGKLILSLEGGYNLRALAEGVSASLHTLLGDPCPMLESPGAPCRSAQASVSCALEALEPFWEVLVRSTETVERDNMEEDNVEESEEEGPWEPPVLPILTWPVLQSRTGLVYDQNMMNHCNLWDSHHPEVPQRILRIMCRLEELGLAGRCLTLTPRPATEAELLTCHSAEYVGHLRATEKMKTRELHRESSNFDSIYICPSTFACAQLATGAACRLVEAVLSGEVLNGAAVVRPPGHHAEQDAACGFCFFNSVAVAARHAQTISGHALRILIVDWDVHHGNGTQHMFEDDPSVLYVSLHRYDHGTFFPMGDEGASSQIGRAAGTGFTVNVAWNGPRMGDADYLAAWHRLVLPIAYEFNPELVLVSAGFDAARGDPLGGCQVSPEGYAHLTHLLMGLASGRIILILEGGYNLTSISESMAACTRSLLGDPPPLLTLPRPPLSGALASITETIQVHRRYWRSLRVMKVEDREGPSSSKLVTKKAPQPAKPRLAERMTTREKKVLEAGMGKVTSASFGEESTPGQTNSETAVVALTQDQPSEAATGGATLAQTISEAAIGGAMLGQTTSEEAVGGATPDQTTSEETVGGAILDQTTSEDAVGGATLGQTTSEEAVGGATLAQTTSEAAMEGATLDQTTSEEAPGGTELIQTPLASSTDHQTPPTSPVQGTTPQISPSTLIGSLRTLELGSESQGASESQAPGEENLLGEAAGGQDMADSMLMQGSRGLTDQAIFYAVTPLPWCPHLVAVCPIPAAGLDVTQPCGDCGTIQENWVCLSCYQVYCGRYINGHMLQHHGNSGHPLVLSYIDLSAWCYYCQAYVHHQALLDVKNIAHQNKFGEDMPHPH

human HDAC1 (hHDAC1) = human HDAC1 (hHDAC1) (Homo sapiens, UniProt Q13547); experiment: In vitro testing on hHDAC1
Sequence of human HDAC1 (hHDAC1) (Q13547 whole entry): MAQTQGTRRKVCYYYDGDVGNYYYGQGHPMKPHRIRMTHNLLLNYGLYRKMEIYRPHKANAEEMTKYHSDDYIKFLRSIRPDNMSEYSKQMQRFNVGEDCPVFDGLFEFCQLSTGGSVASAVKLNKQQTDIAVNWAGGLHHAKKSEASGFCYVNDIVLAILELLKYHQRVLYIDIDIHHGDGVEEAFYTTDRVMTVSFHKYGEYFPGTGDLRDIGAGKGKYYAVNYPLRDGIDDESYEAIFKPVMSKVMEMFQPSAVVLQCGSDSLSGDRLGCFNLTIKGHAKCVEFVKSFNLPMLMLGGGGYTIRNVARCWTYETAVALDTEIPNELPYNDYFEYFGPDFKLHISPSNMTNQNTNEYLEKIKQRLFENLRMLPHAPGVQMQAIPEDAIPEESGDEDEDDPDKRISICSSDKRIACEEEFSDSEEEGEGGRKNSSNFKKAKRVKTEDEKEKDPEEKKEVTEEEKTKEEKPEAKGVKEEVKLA

[3] = tested on: mature stage V P. falciparum gametocytes; experiment: Gametocytocidal activity; assay type: cell-based; conditions: Plasmodium falciparum, NF54, 48 h, read-out: Pf stage V gametocytes IC50
[4] = Plasmodium falciparum, 3D7, read-out: IC50 (Pf3D7)
[5] = Plasmodium falciparum, 3D7, read-out: IC50 (Pf3D7), asexual intraerythrocytic stage P. falciparum 3D7

Row | SMILES | Selectivity index (SI) = (mammalian cell IC50)/(Pb EEF IC50) [1] | IC50 [1] | Selectivity index (SI) = (mammalian cell IC50)/(P. falciparum IC50) [2] | IC50 [2, 4] | IC50 (HepG2 cells) | IC50 (human HDAC6 (hHDAC6)) | Selectivity index (SI) = hHDAC1/hHDAC6 (human HDAC6 (hHDAC6)) | IC50 (human HDAC1 (hHDAC1)) | IC50 [2, 5] | IC50 [3] | IC50 ([2]; read-out: IC50 (Pf3D7), asexual intraerythrocytic stage P. falciparum 3D7)
1 | Cc1cc(C)cc(C(=O)N(CC(=O)NCc2ccc(Cl)cc2)Cc2ccc(C(=O)NO)cc2)c1 [Compound 2n, N-(2-((4-Chlorobenzyl)amino)-2-oxoethyl)-N-(4-(hydroxycarbamoyl)benzyl)-3,5-dimethylbenzamide] | 21 | 1 µM | – | – | – | – | – | – | – | – | –
2 | Cc1cc(C)cc(C(=O)N(CC(=O)NCc2ccccc2)Cc2ccc(C(=O)NO)cc2)c1 [Compound 2j, N-(2-(Benzylamino)-2-oxoethyl)-N-(4-(hydroxycarbamoyl)benzyl)-3,5-dimethylbenzamide] | 131 | 0.073 µM | 259 | 0.037 µM | 9.57 µM | – | – | – | – | – | –
3 | CC(C)(C)c1ccc(C(=O)N(CC(=O)NCc2ccccc2)Cc2ccc(C(=O)NO)cc2)cc1 [Compound 2g, N-(2-(Benzylamino)-2-oxoethyl)-4-(tert-butyl)-N-(4-(hydroxycarbamoyl)benzyl)benzamide] | 23 | 0.58 µM | 889–1483 | 0.0052 to 0.0088 µM | 5 to 13 µM | 0.071 µM | <1 | 0.034 µM | – | – | –
4 | CCN(CC)CCCC(C)Nc1ccnc2cc(Cl)ccc12 (stereo not drawn) [chloroquine, reference compound] | – | – | – | 0.0068 µM | – | – | – | – | – | – | –
5 | Cc1cc(C)cc(C(=O)N(CC(=O)NCc2cccnc2)Cc2ccc(C(=O)NO)cc2)c1 [Compound 2r, N-(4-(Hydroxycarbamoyl)benzyl)-3,5-dimethyl-N-(2-oxo-2-((pyridin-3-ylmethyl)amino)ethyl)benzamide] | 3 | 16.7 µM | 530 | 0.079 µM | 41.9 µM | – | – | – | – | – | –
6 | CN(C)c1ccc(C(=O)N(Cc2ccc(C(=O)NO)cc2)C(C)(C)C(=O)NC2CCCCC2)cc1 [Compound 2c, N-(1-(Cyclohexylamino)-2-methyl-1-oxopropan-2-yl)-4-(dimethylamino)-N-(4-(hydroxycarbamoyl)benzyl)benzamide] | >3 | 20.1 µM | – | – | > 50 µM | 0.089 µM | 5 | 0.45 µM | 0.095 µM | 16.3 µM | –
7 | Cc1ccccc1C(=O)N(CC(=O)NC(C)(C)C)Cc1ccc(C(=O)NO)cc1 [Compound 2e, N-(2-(tert-Butylamino)-2-oxoethyl)-N-(4-(hydroxycarbamoyl)benzyl)-2-methylbenzamide] | >5 | 9.7 µM | – | – | > 50 µM | – | 47 | – | – | – | –
8 | CC(C)c1ccc(C(=O)N(CC(=O)NCc2ccccc2)Cc2ccc(C(=O)NO)cc2)cc1 [Compound 2h, N-(2-(Benzylamino)-2-oxoethyl)-N-(4-(hydroxycarbamoyl)benzyl)-4-isopropylbenzamide] | 289 | 0.016 µM | 889–1483 and 889 | – | 5 to 13 µM | 0.051 µM | <1 | 0.019 µM | 0.0052 to 0.0088 µM | – | 0.0052 µM
9 | Cc1cc(C)cc(C(=O)N(CC(=O)NCc2ccc(C(C)(C)C)cc2)Cc2ccc(C(=O)NO)cc2)c1 [Compound 2o, N-(2-((4-(tert-Butyl)benzyl)amino)-2-oxoethyl)-N-(4-(hydroxycarbamoyl)benzyl)-3,5-dimethylbenzamide] | 2 | 16.6 µM | – | – | – | – | – | – | – | – | –
10 | CNC(=O)CN(Cc1ccc(C(=O)NO)cc1)C(=O)c1ccccc1C [Compound 2t, N-(4-(Hydroxycarbamoyl)benzyl)-2-methyl-N-(2-(methylamino)-2-oxoethyl)benzamide] | >2 | 28.1 µM | > 704 | – | > 50 µM | 0.032 µM | 63 | 2.01 µM | 0.054 to 0.12 µM | – | –
11 | Cc1cc(C)cc(C(=O)N(CC(=O)NCc2ccc(F)cc2)Cc2ccc(C(=O)NO)cc2)c1 [Compound 2m, N-(2-((4-Fluorobenzyl)amino)-2-oxoethyl)-N-(4-(hydroxycarbamoyl)benzyl)-3,5-dimethylbenzamide] | 185 | 0.11 µM | – | – | – | – | – | – | – | – | –
12 | Cc1cccc(CNC(=O)CN(Cc2ccc(C(=O)NO)cc2)C(=O)c2cc(C)cc(C)c2)c1 [Compound 2q, N-(4-(Hydroxycarbamoyl)benzyl)-3,5-dimethyl-N-(2-((3-methylbenzyl)amino)-2-oxoethyl)benzamide] | 157 | 0.13 µM | – | – | – | – | – | – | – | – | –
13 | Cc1ccc(CNC(=O)CN(Cc2ccc(C(=O)NO)cc2)C(=O)c2cc(C)cc(C)c2)cc1 [Compound 2k, N-(4-(Hydroxycarbamoyl)benzyl)-3,5-dimethyl-N-(2-((4-methylbenzyl)amino)-2-oxoethyl)benzamide] | 70 | 0.21 µM | – | – | – | – | – | – | – | – | –
14 | CC(C)c1ccc(C(=O)N(CC(=O)NC2CCCCC2)c2ccc(C(=O)NO)cc2)cc1 [Compound 2a, N-(2-(cyclohexylamino)-2-oxoethyl)-N-(4-(hydroxycarbamoyl)phenyl)-4-isopropylbenzamid] | 4 | 9.7 µM | – | 0.57 to 77.7 µM | – | – | – | – | – | – | –
15 | COc1ccc(CNC(=O)CN(Cc2ccc(C(=O)NO)cc2)C(=O)c2cc(C)cc(C)c2)cc1 [Compound 2l, N-(4-(Hydroxycarbamoyl)benzyl)-N-(2-((4-methoxybenzyl)amino)-2-oxoethyl)-3,5-dimethylbenzamide] | 34 | 0.57 µM | – | – | – | – | – | – | – | 10.2 µM | –
16 | CN(C)c1ccc(C(=O)N(CC(=O)NCc2ccccc2)Cc2ccc(C(=O)NO)cc2)cc1 [Compound 2i, N-(2-(Benzylamino)-2-oxoethyl)-4-(dimethylamino)-N-(4-(hydroxycarbamoyl)benzyl)benzamide] | 28 | 0.022 µM | 64 | – | 0.62 µM | – | <1 | 0.0077 µM | – | – | –
17 | COc1ccccc1C(=O)N(CC(=O)NC(C)(C)C)Cc1ccc(C(=O)NO)cc1 [Compound 2f, N-(2-(tert-Butylamino)-2-oxoethyl)-N-(4-(hydroxycarbamoyl)benzyl)-2-methoxybenzamide] | >2 | 26.7 µM | – | – | > 50 µM | – | 82 | – | 0.11 to 0.25 µM | – | –
18 | Cc1cc(C)cc(C(=O)N(CC(=O)NC2CCCCC2)c2ccc(C(=O)NO)cc2)c1 [Compound 2b, N-(2-(cyclohexylamino)-2-oxoethyl)-N-(4-(hydroxycarbamoyl)phenyl)-3,5-dimethylbenzamide] | 2 | 20.2 µM | – | 0.57 to 77.7 µM | – | – | – | – | – | – | –
19 | Cc1cc(C)cc(CNC(=O)CN(Cc2ccc(C(=O)NO)cc2)C(=O)c2cc(C)cc(C)c2)c1 [Compound 2p, N-(2-((3,5-Dimethylbenzyl)amino)-2-oxoethyl)-N-(4-(hydroxycarbamoyl)benzyl)-3,5-dimethylbenzamide] | 35 | 0.58 µM | – | – | – | – | – | – | – | 5.27 µM | –
